Converted amounts (≈) assume the structure as drawn.
How the values were obtained:
E. coli (ATCC 25922) [1] = experiment: Biofilm formation, crystal violet staining; assay type: cell-based
Procedure: (§1) Quantification of biofilm using crystal violet staining:
(§2) MRSA and E. coli cells were first adjusted to the logarithmic growth phase and diluted to […]. […] A blank control group without compound addition was set up. After incubation, the suspension was discarded and washed three times with 10 mM PBS buffer, and the biofilm was fixed with methanol for 15 minutes. After removing the methanol, 200 μL of 0.1% crystal violet was added to each well for staining for 30 minutes, and then the crystal violet was discarded and washed again with PBS three times. After the well plate was dried, 200 μL of 95% ethanol was added to each well to dissolve the fixed dye. […] This process allows for quantitative analysis of the ability of different concentrations of compound i to form biofilms.

MRSA (ATCC 33591) [2] = experiment: Biofilm formation, crystal violet staining; assay type: cell-based, S. aureus
Procedure: as §1, §2

E. coli (ATCC 25922) [3] = experiment: Cell membrane integrity, propidium iodide staining; assay type: cell-based
Procedure: (§3) The steps for dead cell staining using propidium iodide are as follows:
(§4) At the beginning of the experiment, samples were taken from MRSA and E. coli in the logarithmic growth phase, centrifuged at 8000 rpm for 5 minutes and washed twice with 0.85% NaCl solution to remove the culture medium and other possible interfering substances. Afterwards, the bacteria were resuspended in 0.85% NaCl solution and the concentration was adjusted to approximately 1×10^8 CFU/mL.
(§5) […] After incubation, in order to mark and distinguish dead cells, 15 μM propidium iodide solution was added to each sample and incubated in the dark for 15 minutes. PI is a fluorescent dye that binds to DNA and can only penetrate into dead cells with damaged cell membranes.
(§6) Finally, the samples were observed using a fluorescence microscope or a confocal laser scanning microscope. By setting the appropriate fluorescence channel (excitation wavelength 535 nm, emission wavelength 617 nm), the red fluorescence emitted by dead cells can be detected. In this way, the effect of compound i on the lethality of bacterial cells can be intuitively evaluated and recorded, providing an experimental basis for further drug research.

E. coli (ATCC 25922) [4] = experiment: Cell membrane potential, DiBAC4 (3) probe; details: 1×MIC to 8×MIC, vs blank control
MRSA (ATCC 33591) [5] = experiment: Cell membrane integrity, propidium iodide staining; assay type: cell-based, S. aureus
Procedure: as §3, §4, §5, §6

MRSA (ATCC 33591) [6] = experiment: Bacterial intracellular pH (cFDA-SE); assay type: cell-based, S. aureus; details: control 6.57±0.10
Procedure: The definition of pHin is based on the ratio of the pH-sensitive wavelength (490 nm) to the pH-insensitive wavelength (440 nm).
First, prepare fluorescently labeled bacterial cells. MRSA and E. coli bacteria were removed from the culture in the logarithmic growth phase, and after high-speed centrifugation and washing with HEPES buffer, the bacteria were labeled with carboxyfluorescein succinimidyl ester (cFDA-SE), and the fluorescent dye was bound to the cells by incubation.
Next, PBS buffer was used to wash and remove the unbound fluorescent dye, and then the cells were suspended in the buffer and stored in a low-temperature environment. The second step was to determine the intracellular pH. The fluorescently labeled cell suspension was added to a test tube containing different concentrations of compound i and transferred to a black opaque 96-well plate for incubation. The fluorescence value was measured at specific excitation and emission wavelengths using a full-wavelength scanning multifunctional reader to calculate the intracellular pH. The last step is the calibration of the intracellular pH. The standard curve was determined using buffer solutions with different pH values to ensure accurate determination of the pH value inside the bacterial cells. […]

E. coli (ATCC 25922) [7] = experiment: Intracellular and extracellular ATP concentration; assay type: cell-based
Procedure: The intracellular and extracellular ATP levels refer to the concentration of ATP inside and outside the cell. Under normal physiological conditions, ATP is mainly produced inside the cell and released outside the cell when needed. This dynamic change is very important for maintaining normal biological homeostasis.
Determine the intracellular ATP concentration using the ATP assay kit:
Secondly, the bacterial suspension was treated with different concentrations of compound i, and a blank control group was set up. Next, the samples were incubated at 37° C. and the cells were lysed by ultrasound to extract ATP. After that, the supernatant was collected by high-speed centrifugation and ATP detection was performed, which involved adding the detection solution and compound to a 96-well plate and using a reader to measure the light intensity. Finally, data analysis and statistics were performed to evaluate the effects of the compound by comparing the ATP levels of different treatment groups.

[8] = test system: C. pneumoniae CWL-029, VR-1310; experiment: Anti-mycoplasma MIC; assay type: cell-based; details: Chlamydia pneumoniae, read-out: Antimycoplasma activity (MIC) CP-CWL-029^h
Procedure: The antimycoplasma activity was quantified using the […]. Retapamulin was used as a positive control to test the minimum inhibitory concentration of 3H-imidazo[4,5-C]pyridine pleuromutilin onium salt derivatives.
(1) Preparation of KM2 medium: Weigh 38.9 g of KM2 medium, add it to 800 mL of distilled water, boil to dissolve, sterilize under high pressure at 115° C. for 20 min, and set aside.
(2) Preparation of bacterial stock solution: Take 0.5 mL of Mhp-J^a, Mhp-LH^b, Mhr-BTS-7^c, MG-R^d, MS-WVU1853^e, MP-M129^f, CP-AR-39^g, CP-CWL-029^h, CP-TW-183^i, MH-PG-21^j, MG-G37^k cultured to the logarithmic phase and transfer it to 4.5 mL of KM2 liquid culture medium. When the culture medium turns yellow, divide each bacterium into 0.5 mL per tube and store it at −70° C. as bacterial stock solution.
(3) Determination of bacterial titer (color change unit, CCU): Take out the bacterial stock solution stored at −70° C., melt and balance to room temperature, add 0.18 mL KM2 medium to each well of the middle 4 rows of the 96-well plate (i.e. 4 parallels), take 0.02 mL and add it to the first column, dilute 10 times to 10^−11, and set up a negative control containing only KM2 medium (12th column). After sealing, put it in a 37° C. incubator and observe the results every day. The highest dilution at which the color of the medium changes is the CCU/mL of the strain.
Take an appropriate amount of seed bacterial solution and dilute it to 10^4 CCU/mL in turn according to its titer. Add drugs of each dilution in a 96-well plate in turn, and then add an equal amount of diluted bacterial solution. Set 200 μL of diluted mycoplasma bacterial solution as a positive control, 200 μL of KM2 liquid culture medium as a negative control, and set a solvent control group (10 μL of drug solvent+190 μL of mycoplasma bacterial solution). Each experiment is set up in 3 parallels. After all culture plates are sealed, they are cultured at 37° C., observed daily, and the final MIC value is recorded.

Compound	inhibition rate of biofilm formation (E. coli (ATCC 25922) [1]; 1×MIC) [%]	inhibition rate of biofilm formation (E. coli (ATCC 25922) [1]; 8×MIC) [%]	inhibition rate of biofilm formation (MRSA (ATCC 33591) [2]; 1×MIC) [%]	inhibition rate of biofilm formation (MRSA (ATCC 33591) [2]; 8×MIC) [%]	cell membrane integrity, propidium iodide red fluorescence (E. coli (ATCC 25922) [3]; 1×MIC)	cell membrane integrity, propidium iodide red fluorescence (E. coli (ATCC 25922) [3]; 2×MIC)	membrane potential, DiBAC4 (3) fluorescence intensity (E. coli (ATCC 25922) [4])	cell membrane integrity, propidium iodide red fluorescence (MRSA (ATCC 33591) [5]; 1×MIC)	cell membrane integrity, propidium iodide red fluorescence (MRSA (ATCC 33591) [5]; 2×MIC)	intracellular pH after treatment (MRSA (ATCC 33591) [6]; 1×MIC)	intracellular pH after treatment (MRSA (ATCC 33591) [6]; 2×MIC)	extracellular fluorescence intensity (ATP) increased by (E. coli (ATCC 25922) [7]; 1×MIC) [times]	intracellular fluorescence intensity (ATP) decreased by (E. coli (ATCC 25922) [7]; 1×MIC) [%]	extracellular fluorescence intensity (ATP) increased by (E. coli (ATCC 25922) [7]; 2×MIC) [times]	intracellular fluorescence intensity (ATP) decreased by (E. coli (ATCC 25922) [7]; 2×MIC) [%]	MIC [8] [µg/mL]
C=C[C@]1(C)C[C@@H](OC(=O)CSc2nc3cc[n+](Cc4ccc(C)cc4)cc3[nH]2)[C@]2(C)[C@H](C)CC[C@]3(CCC(=O)[C@H]32)[C@@H](C)[C@@H]1O [Compound i, 5-(4-methylbenzyl)-2-((2-(((3aR,4R,5R,7S,8S,9R,9aS,12R)-8-hydroxy-4,7,9,12-tetramethyl-3-oxo-7-vinyldecahydro-4,9a-propancyclopenta[8]cyclo-5-yl)oxy)-2-oxoethyl)thio)-3H-imidazo[4,5-C]pyridine-5-ium]	60.47	94.54	51.33	86.68	obvious red fluorescence was observed	red fluorescence was significantly enhanced	dose-dependent increase in fluorescence intensity	obvious red fluorescence was observed	red fluorescence was significantly enhanced	4.66±0.12	2.96±0.09	4.34	50.75	5.35	67.87	–
C=C[C@]1(C)C[C@@H](OC(=O)CS[C@@H]2C[C@H]3CC[C@@H](C2)N3C)[C@]2(C)[C@H](C)CC[C@]3(CCC(=O)[C@H]32)[C@@H](C)[C@@H]1O [Retapamulin, reference compound]	–	–	–	–	–	–	–	–	–	–	–	–	–	–	–	0.03 (≈ 0.0579 µM)
